# Reference: US20040106198A1, “Inhibition of peptide cleavage in plants” (LARGE SCALE BIOLOGY CORPORATION, priority 2002, published 2004)
# Numbered stars: 1 amine (or outer) side, 2 acyl side, 3 side chain; on linkers, the order of the positions; unused ones are H or OH. Square brackets hold non-standard residues; d marks the D form. Peptide text beside a SMILES is read from it. * marks the point of attachment. Sta = CC(C)C[C@H](N)[C@@H](O)CC(=O)O; pNA = O=[N+]([O-])c1ccc(N*)cc1; Suc = O=C(CCC(=O)[*:2])[*:1]; Isovaleryl = CC(C)CC(=O)*; Cbz = O=C(OCc1ccccc1)*; CK = not defined here
# Tested on: plant protease
# Assay: In vitro stability of recombinant hGH in IF with protease inhibitors (Western)
# Assay type: biochemical, N. benthamiana
# Settings: 24 hours at 24° C. followed by 120 hours at 5° C.; anti-hGH Western
# Description: FIG. 1 depicts the in vitro stability of expressed recombinant human growth hormone protein (hereafter “hGH”) in the interstitial fluid (hereafter “IF”) following the addition of protease inhibitors. Recombinant hGH protein was expressed in N. benthamiana using a tobacco mosaic virus (hereafter “TMV”) vector expression system. IF was prepared from plant leaves at 9 days post-inoculation and incubated for 24 hours at 24° C. followed by 120 hours at 5° C. with or without the addition of protease inhibitors. Fifteen microliters of the IF extract was separated by SDS-PAGE and the gel prepared for Western analysis. The levels of hGH protein in the IF of the time zero control (lane a), in absence of inhibitor (lane b), and in the presence of protease inhibitors chymostatin (lane c) and PI-I (lane d), were detected using anti-hGH antibody.
# When a plant viral vector expression system (Kumagai et al., 1995; McCormick et al., 1999) was utilized to express the secreted, mammalian recombinant protein, hGH, significant degradation of the target protein was observed. […]
# Aliquots of the plant IF fraction were separated by SDS-PAGE and levels of hGH protein were detected by immunoblot analysis using anti-hGH polyclonal antibody (Sigma, St. Louis, Mo.). […]
# At zero time, prior to the addition of any inhibitors, both full length and hGH cleavage products were detected (FIG. 1). […]
row,Molecule,inhibition of degradation of hGH protein in IF extract
1,CC(C)C[C@H](NC(=O)[C@@H](NC(=O)N[C@@H](Cc1ccccc1)C(=O)O)[C@@H]1CCN=C(N)N1)C(=O)N[C@H](C=O)Cc1ccccc1 [Chymostatin],inhibition of further degradation of the intact hGH protein was observed

# Tested on: Nicotianalisin
# Assay: Protease inhibitor study in plant interstitial fluid (IF), N-Suc-AAPL-p-NA hydrolysis
# Assay type: biochemical, N. benthamiana
# Settings: not given
# Description: To further classify the protease activity in the plant IF extract, protease inhibitor studies were performed. Standard inhibitors from different classes of proteases were used. An aliquot of the plant IF was incubated with each inhibitor for 30 min at 24° C., and the free enzyme was incubated under the same conditions without the inhibitor to serve as the control. The protease activity after the inhibition was measured and compared to the control.
# To further characterize the plant proteolytic activity, experiments were initiated to partially purify the plant protease. In order to purify the protease, enzyme assays were developed and utilized. Proteolytic activity was monitored by the hydrolysis of a synthetic substrate, hydrolysis of a protein substrate and/or by an in situ gel procedure. […] The absorbance of the p-nitroaniline (p-NA) produced was measured at 410 nm (Erlanger, Kokowsky, and Cohen, 1961; Nakajima et al., 1979). The activity unit was defined as the amount of the enzyme capable of producing 1 nanomole of p-NA per min under the conditions of the experiment with an absorption coefficient of […] (Erlanger, Kokowsky, and Cohen, 1961; Nakajima et al., 1979). The rate of hydrolysis of N-Succinyl-Ala-Ala-Pro-Phe-thiobenzylester SEQ ID NO: in 10% DMSO and 4,4′-dithiodipyridine was monitored at […] using an extinction coefficient of 19800 cm^−1 M^−1 (Barrett and Kirschke, 1981). General proteolytic activity was measured with 2.0% azocasein or 2.0% azoalbumin and Fluorescein Isothiocyanate Casein (FITC-casein; (Twining, 1984)). The reaction was started by addition of 10 μl of protease solution to 70 μl of reaction mixture (100 mM buffer Tris-HCl pH 7.0 containing 0.04% FTC-casein, 0.5 mM DDT, 2 mM CaCl2) and incubation for 1 hr at 37° C. The reaction was stopped by addition of 80 μl of 10% TCA and incubation for 15 min at −20° C. The mixture was centrifuged for 10 min at 10,000×g at 4° C. 10 μl of the supernatant solution was added to 150 μl Tris-HCl (0.5 M, pH 8.5), and fluorescence was measured at an excitation wavelength of 490 nm and an emission wavelength of 525 nm using a fluorescence plate reader ((Erlanger, Kokowsky, and Cohen, 1961; Nakajima et al., 1979), Molecular Devices).
row,Molecule,% Inhibition
1,Cc1ccc(S(=O)(=O)N[C@@H](CCCCN)C(=O)CCl)cc1 [TLCK],0%

# Same assay, conditions: IF from viral vector-infected plants incubated with inhibitor 30 min at 24° C.; 0.3 mM N-Suc-AAPL-p-NA
row,Molecule,% Inhibition
1,O=C(O)CN(CCN(CC(=O)O)CC(=O)O)CC(=O)O [EDTA],5%
2,O=c1oc(Cl)c(Cl)c2ccccc12 [3-4 DCI],100%
3,CC(C)C[C@@H](N)[C@H](O)C(=O)N[C@H](C(=O)N[C@H](C(=O)N[C@@H](CC(=O)O)C(=O)O)C(C)C)C(C)C [Amastatin],5%
4,CC(C)C[C@H](NC(=O)[C@H]1O[C@@H]1C(=O)O)C(=O)NCCCCN=C(N)N [E-64],5%
5,"O=S(=O)(F)Cc1ccccc1 [PMSF, phenylmethanesulfonyl fluoride]",100%
6,c1cnc2c(c1)ccc1cccnc12 [1-10 Phenantrolin],11%
7,CC(C)C[C@H](NC(=O)N[C@H](C(=O)N[C@@H](CCC(N)=O)C(=O)N[C@@H](C)C=O)[C@@H]1CCNC(=N)N1)C(=O)O [Elastinal],41%
8,Aprotinin,46%
9,"N-CBZ-GGF-CK: irreversible serine protease inhibitor, active site titrant (Cbz-Gly-Gly-Phe-{CK}; reading uncertain; also: printed as N-CBZ-GGF-CK)",70%
10,CC(=O)N[C@@H](CC(C)C)C(=O)N[C@@H](CC(C)C)C(=O)N[C@H](C=O)CCCNC(=N)N [Leupeptin],18%
11,CC(C)CC(=O)N[C@H](C(=O)N[C@H](C(=O)N[C@@H](CC(C)C)[C@@H](O)CC(=O)N[C@@H](C)C(=O)N[C@@H](CC(C)C)[C@@H](O)CC(=O)O)C(C)C)C(C)C [Pepstatin A] (Isovaleryl-VV[Sta]A[Sta]-OH),6%
12,Cc1ccc(S(=O)(=O)N[C@@H](Cc2ccccc2)C(=O)CCl)cc1 [TPCK],38%
13,CC(C)C[C@H](NC(=O)[C@@H](NC(=O)N[C@@H](Cc1ccccc1)C(=O)O)[C@@H]1CCN=C(N)N1)C(=O)N[C@H](C=O)Cc1ccccc1 [Chymostatin],100%

# Tested on: Nicotianalisin
# Assay: Hydrolysis of synthetic 4-nitroanilide peptide substrates by purified protease
# Settings: not given
row,Molecule,preferential cleavage of synthetic peptide substrates
1,N-Suc-AAPM-pNA: synthetic 4-nitroanilide peptide substrate (SMILES CSCC[C@H](NC(=O)[C@@H]1CCCN1C(=O)[C@H](C)NC(=O)[C@H](C)NC(=O)CCC(=O)O)C(=O)Nc1ccc([N+](=O)[O-])cc1),preferentially cleaved
2,N-Succinyl-Alanine-Alanine-Proline-Phenylalanine-para-nitroanilide [N-Suc-AAPF-pNA],preferentially cleaved
3,N-Succinyl-Alanine-Alanine-Proline-Leucine-para-nitroanilide [N-Suc-AAPL-pNA],preferentially cleaved

# Tested on: CD34+
# Assay: CD34+ proliferation assays
# Assay type: cell-based
# Settings: proteins purified from plants
# Description: The vectors were used to inoculate plant leaves of different sets of plants as described in the examples above. Both plant homogenates and interstitial fluid were extracted as described above. hSCF and pSCF were each purified from 27 plants to yield 0.85 mg (˜15 mg/kg) and 2.5 mg (˜45 mg/kg) of protein respectively.
row,Molecule,biological activity in CD34+ proliferation assays
1,hSCF: human Stem Cell growth Factor expressed in plants from GENEWARE vector,biologically active

# Tested on: Nicotianalisin
# Assay: In situ Zymogram gelatin gel assay of partially purified protease
# Assay type: biochemical, N. benthamiana
# Settings: 2 mM PMSF for 1 hr at 24° C.; partially purified fraction
# Description: FIG. 2 depicts the inhibition of Nicotianalisin by PMSF protease inhibitor using Zymogram gelatin gel analysis. Plant extracts containing Nicotianalisin activity were partially purified by ion-exchange chromatography at pH 5.2, and fractions with peak protease activity were treated with or without 2 mM PMSF for 1 hr at 24° C. Following treatment, aliquots were removed and inhibitory activity assessed on Zymogram gels.
# The in situ protease gel assay was carried out in pre-cast 10% Zymogram gels (Invitrogen, Carlsbad, Calif.) as per manufacturer's protocols.
# Following the initial observation that the plant protease activity was inhibited by both chymostatin and potato PI-I (FIG. 1), experiments were initiated to partially purify the protease from N. benthamiana leaves. Plants were grown and IF extracts were prepared as described above. The IF was filtered through a 0.8μ Sartorius GF membrane to remove most of the Ribulose-1,5-bisphosphate carboxylase/oxygenase (Rubisco) and green pigments. The diafiltered extract was separated further by SP sepharose (Pharmacia) ion exchange chromatography at pH 5.2.
row,Molecule,reduction of protease activity on Zymogram gelatin gel
1,"O=S(=O)(F)Cc1ccccc1 [PMSF, phenylmethanesulfonyl fluoride]",significant reduction of protease activity
